According to patent publication US20110314564A1, “ENZYMES AND METHODS FOR HYDROLYSING PHENYLUREAS, CARBAMATES AND ORGANOPHOSPHATES” (priority 2008, published 2011):

Tests used:
PuhA = PuhA (Arthrobacter globiformis, UniProt B8R4L9); test: Hydrolysis of phenylurea, carbamate and organophosphate substrates by purified PuhA (LCMS / FBBS / A400 assays)
PuhB = PuhB (Mycolicibacterium brisbanense, UniProt B8R4K0); test: Hydrolysis of phenylurea, carbamate and organophosphate substrates by purified PuhB (LCMS / FBBS / A400 assays)
[1] = tested on: CN(C)C(=O)Nc1ccc(Cl)c(Cl)c1; test: purified protein, by the assay type; conditions: pH 6.9, 25.0 °C

Compound	hydrolysis / turnover of the substrate (in words) (PuhA; PuhA)	hydrolysis / turnover of the substrate (in words) (PuhB; PuhB)	other results
Cc1nc(N(C)C)nc(OC(=O)N(C)C)c1C [pirimicarb]	slowly turned over	slowly turned over	catalytic efficiency, fold lower than diuron (PuhA; PuhA): 10^4 fold; catalytic efficiency, fold lower than diuron (PuhB; PuhB): 10^3 fold
CON(C)C(=O)Oc1ccc(Cl)c(Cl)c1 [carbamate analogue of linuron, 3,4-dichlorophenyl N-methoxy-N-methylcarbamate]	as efficiently as the phenylurea	as efficiently as the phenylurea	–
CNC(=O)Oc1cccc2ccccc12 [carbaryl]	neither enzyme catalysed the hydrolysis	neither enzyme catalysed the hydrolysis	–
CCCCN(C)C(=O)Nc1ccc(Cl)c(Cl)c1 [neburon]	no detectable hydrolysis	no detectable hydrolysis	–
CN(C)C(=O)Oc1ccc([N+](=O)[O-])cc1 [DMNPC, N-dimethyl, O-4-nitrophenyl carbamate]	turned over at a higher efficiency than poor phenylurea substrates	turned over at a higher efficiency than poor phenylurea substrates	–
PuhA (Arthrobacter globiformis)	–	–	Km ([1]; other: PuhA): 55.0 µM
CON(C)C(=O)Nc1ccc(Cl)c(Cl)c1 [linuron]	–	–	turnover rate (kcat), fold higher than that of diuron (PuhA; enzyme not given): ~9 fold; turnover rate (kcat), fold higher than that of diuron (PuhB; enzyme not given): ~9 fold
CC1CCCCC1NC(=O)Nc1ccccc1 (stereo not drawn) [siduron]	no detectable hydrolysis	no detectable hydrolysis	–
PuhB (Mycolicibacterium brisbanense)	–	–	Km ([1]; other: PuhB): 11.0 µM
CCOP(=O)(OCC)Oc1ccc([N+](=O)[O-])cc1 [paraoxon ethyl]	only slightly lower than isoproturon	only slightly lower than isoproturon	hydrolysis / turnover of the substrate (in words) (PuhA; PuhA, listed as ethyl paraoxon): turned over by both proteins; hydrolysis / turnover of the substrate (in words) (PuhB; PuhB, listed as ethyl paraoxon): turned over by both proteins
CCN(CC)C(=O)SCc1ccc(Cl)cc1 [thiobencarb]	neither enzyme catalysed the hydrolysis	neither enzyme catalysed the hydrolysis	–
CNC(=O)N(C)c1nnc(C(C)(C)C)s1 [tebuthiuron]	no detectable hydrolysis	no detectable hydrolysis	–
CN(C)C(=O)Nc1ccc(-n2nc(C(C)(C)C)oc2=O)c(Cl)c1 [dimefuron]	no detectable hydrolysis	no detectable hydrolysis	–
O=C(Nc1ccccc1)Nc1cnns1 [thidiazuron]	no detectable hydrolysis	no detectable hydrolysis	–
